The structures appear in SMILES notation.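 Five concentrations, 48 hours, 96-well plates. GI50 is the concentration that inhibits growth by half.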 Activity calls are given as the source filed them. Rule as the data show it: active = GI50 up to about 1.1 µM and inactive = higher.

Test systems include SW-620; SN12C; HCC 2998; OVCAR-4; RXF 393; HCT-15; SF-268; NCI-H226; NCI/ADR-RES; HCT-116; IGROV-1; PC-3; MDA-MB-435; MDA-MB-231; SR; OVCAR-3; T47D; U-251; TK-10; SF-539.
What all share (experiment): growth of human tumour cells (NCI), 48 h

For `Cn1c2ccccc2n2c3ncccc3/c(=N/CCCC(=O)O)c(C#N)c12`, the GI50 is > 100 µM (inactive) in the test with SW-620; > 100 µM (inactive) in the test with SN12C; > 100 µM (inactive) with HCC 2998; > 100 µM (inactive) in the test with OVCAR-4; > 100 µM (inactive) in the test with RXF 393; over 100 µM in the test on HCT-15. Besides, the GI50 in the test with SF-268, in the test on NCI-H226, with NCI/ADR-RES, in the test with HCT-116, in the test with IGROV-1 and in the test on PC-3 was > 100 µM (inactive) in each case. The GI50 in the test with MDA-MB-435, in the test with MDA-MB-231, in the test with SR, in the test with OVCAR-3, in the test with T47D and in the test with U-251 was > 100 µM (inactive) throughout.
Take `CCNC(=S)N/N=C/c1cc([N+](=O)[O-])ccc1O`: the GI50 in the test with SW-620 is 40.5 µM (inactive); in the test on SN12C, 31.5 µM (inactive); in the test with HCC 2998, 16.2 µM (inactive); in the test with OVCAR-4, 15.6 µM (inactive); in the test with RXF 393, 62.2 µM (inactive); with HCT-15, 11.6 µM. Besides, the GI50 was 24.3 µM (inactive) with SF-268; 27.9 µM (inactive) in the test with NCI-H226; 21.8 µM (inactive) in the test with NCI/ADR-RES; 16.9 µM (inactive) with HCT-116; 16.2 µM (inactive) with TK-10; 22.4 µM (inactive) in the test with IGROV-1. Further, the GI50 in the test with PC-3 was 28.3 µM (inactive); in the test on MDA-MB-435, 37.2 µM (inactive); with MDA-MB-231 it was 33 µM (inactive); with SR it was 10.9 µM (inactive); in the test with SF-539, 35.4 µM (inactive); with T47D, 19.9 µM (inactive). For the same molecule, in the test on U-251, the GI50 was 16.9 µM (inactive).
Regarding `CCCCOC(=O)NC(Nc1ccc(S(=O)(=O)Nc2ncccn2)cc1)(C(F)(F)F)C(F)(F)F`, the GI50 in the test with SW-620 is > 100 µM (inactive); with SN12C, > 100 µM (inactive); with HCC 2998, 33.5 µM (inactive); with OVCAR-4, > 100 µM (inactive); in the test with RXF 393 it was > 100 µM (inactive); in the test on HCT-15, over 100 µM. Besides, the GI50 with SF-268, in the test on NCI-H226, in the test on NCI/ADR-RES, in the test on HCT-116, with TK-10 and in the test with IGROV-1 was > 100 µM (inactive) each time. Further, the GI50 in the test on PC-3 is > 100 µM (inactive); with MDA-MB-435 it was > 100 µM (inactive); in the test on MDA-MB-231 it was > 100 µM (inactive); in the test with SR, 78.2 µM (inactive); in the test on OVCAR-3 it was > 100 µM (inactive); in the test on SF-539, > 100 µM (inactive). In addition, in the test with T47D, the GI50 was 37 µM (inactive).
As for `O=C(O)CCC(/N=C(\C(=N\C(CCC(=O)O)C(=O)O)c1ccccc1)c1ccccc1)C(=O)O` (stereo not given), the GI50 in the test with SW-620 was > 100 µM (inactive); with SN12C, > 100 µM (inactive); in the test on HCC 2998, > 100 µM (inactive); with OVCAR-4, > 100 µM (inactive); with RXF 393, > 100 µM (inactive); in the test with HCT-15 it was over 100 µM. Also, the GI50 with SF-268, in the test on NCI-H226, in the test on NCI/ADR-RES, in the test with HCT-116, with TK-10 and in the test with PC-3 was > 100 µM (inactive) throughout. Besides, the GI50 in the test on MDA-MB-435, in the test on MDA-MB-231, in the test with SR, in the test with OVCAR-3, in the test with T47D and in the test with U-251 was > 100 µM (inactive) throughout.
With `CC(=O)NC1C(OCc2ccccc2)OC(CO)C(O)C1OC(C)C(=O)NC(C(=O)NC(CCC(=O)NCCCC(=O)Nc1ccc2c(c1)CN1C(=O)c3ccccc3C1=N2)C(N)=O)C(C)C` (stereo not given), the GI50 with SW-620 was > 100 µM (inactive); in the test on SN12C, > 100 µM (inactive); with HCC 2998 it was > 100 µM (inactive); with OVCAR-4, > 100 µM (inactive); in the test on RXF 393, > 100 µM (inactive); in the test with HCT-15 it was over 100 µM. Moreover, the GI50 with SF-268, in the test on NCI/ADR-RES, in the test on HCT-116, in the test on TK-10, in the test on IGROV-1 and with PC-3 was > 100 µM (inactive) each time. For the same molecule, the GI50 with MDA-MB-435, in the test with MDA-MB-231, in the test on SR, in the test with OVCAR-3, in the test with SF-539 and with T47D was > 100 µM (inactive) in each case. Also, the GI50 with U-251 is > 100 µM (inactive).
Take `O=[N+]([O-])c1ccc(OP(=O)(O)OCC2OC(CP(=O)(O)O)C(O)C2O)cc1` (stereo not given): the GI50 in the test with SW-620 was > 100 µM (inactive); in the test on SN12C it was > 100 µM (inactive); in the test with HCC 2998 it was > 100 µM (inactive); in the test on OVCAR-4, > 100 µM (inactive); in the test with RXF 393 it was > 100 µM (inactive); with HCT-15, over 100 µM. For the same molecule, the GI50 in the test on SF-268, in the test on NCI/ADR-RES, in the test with HCT-116, in the test on TK-10, in the test on IGROV-1 and in the test on PC-3 was > 100 µM (inactive) throughout. Further, the GI50 with MDA-MB-435, in the test on MDA-MB-231, in the test with SR, in the test with OVCAR-3, in the test on SF-539 and in the test on T47D was > 100 µM (inactive) each time. For the same molecule, the GI50 in the test with U-251 is > 100 µM (inactive).
Turning to `CC1CCC/C1=C(/I)C(=O)c1ccccc1` (stereo not given), the GI50 with SW-620 is 53.1 µM (inactive); in the test with SN12C, > 100 µM (inactive); in the test on HCC 2998, > 100 µM (inactive); in the test with OVCAR-4, 85.7 µM (inactive); in the test on RXF 393, > 100 µM (inactive); in the test on HCT-15, over 100 µM. Also, the GI50 is > 100 µM (inactive) in the test on SF-268; 60.7 µM (inactive) in the test on NCI-H226; 76.7 µM (inactive) in the test with NCI/ADR-RES; 36.6 µM (inactive) in the test with HCT-116; > 100 µM (inactive) in the test on TK-10; > 100 µM (inactive) in the test with IGROV-1. The GI50 was > 100 µM (inactive) in the test with PC-3; 28.9 µM (inactive) in the test on MDA-MB-435; 40.2 µM (inactive) with MDA-MB-231; 30.8 µM (inactive) in the test with SR; > 100 µM (inactive) with SF-539; > 100 µM (inactive) in the test with T47D. For the same molecule, in the test with U-251, the GI50 is > 100 µM (inactive).
Regarding `O=C(CC(=O)N1N=C(c2ccccc2)C(/N=N/c2ccc(S(=O)(=O)CCOS(=O)(=O)O)cc2)C1=O)Nc1ccc(Cl)cc1` (stereo not given), the GI50 was > 10 µM (inactive) in the test on SW-620; 86.5 µM (inactive) in the test with SN12C; 59.4 µM (inactive) with HCC 2998; > 100 µM (inactive) in the test with RXF 393; 8.61 µM in the test on HCT-15; > 100 µM (inactive) in the test with SF-268. Further, the GI50 with NCI-H226 is > 100 µM (inactive); in the test on NCI/ADR-RES, > 100 µM (inactive); with HCT-116, 85.9 µM (inactive); in the test with TK-10 it was > 100 µM (inactive); with IGROV-1 it was 8.75 µM (inactive); in the test on PC-3 it was > 100 µM (inactive). In addition, the GI50 in the test with MDA-MB-435 was > 100 µM (inactive); with MDA-MB-231 it was 91.6 µM (inactive); in the test with SR it was > 100 µM (inactive); in the test with OVCAR-3 it was > 100 µM (inactive); in the test on SF-539, > 100 µM (inactive); with T47D it was > 100 µM (inactive). For the same molecule, in the test with U-251, the GI50 is > 100 µM (inactive).

The values above are taken from ChEMBL document CHEMBL1201862, “PubChem BioAssay data set” (2004).
